Earlier results in US9180194B2, “Method and composition for transdermal drug delivery” (Acrux DDS Pty Ltd, priority 2005, dated 2015).

Conditions: continuous trans-scrotal delivery

## C[C@]12CC[C@H]3[C@@H](CCC4=CC(=O)CC[C@@]43C)[C@@H]1CC[C@@H]2O [testosterone]
  levels of DHT and DHT/testosterone ratios relative to normal: 4 to 5 fold
